Earlier results in patent publication US20140099366A1, “Composition Containing Two Anti-Dementia Drugs” (priority 2005, published 2014).
Where a name gives a salt, the structure may show the parent alone.

System: patients with moderate to severe Alzheimer-type dementia
Conditions: added to donepezil hydrochloride already administered, compared to placebo group

In the case of CC12CC3CC(C)(C1)CC(N)(C3)C2 [memantine hydrochloride], the “cognitive ability and activities of daily living” value is listed as “improved”.
